According to patent US20140364460A1, “USE OF FATOSTATIN FOR TREATING CANCER HAVING A p53 MUTATION” (THE TRUSTEES OF COLUMBIA UNIVERSITY IN THE CITY OF NEW YORK, priority 2012, published 2014):

Tests used:
[1] = mice, after administration of 23 mg/kg; cited from earlier work
[2] = system: mutant p53 binding to the HMG-CoA reductase gene promoter; assay: Quantitative ChIP of mutant p53 in fatostatin-treated MDA-468.shp53 cells; assay type: cell-based; conditions: fatostatin 20 μM, six independent experiments, p<0.01
Protocol: FIG. 1. MDA-468.shp53 cells were treated with fatostatin (20 μM) and subjected to ChIP analysis. Data are presented as mean+−SD of six independent experiments. **p<0.01
Chromatin Immunoprecipitation (ChIP) experiments were carried out as described in Beckerman et al., 2009. Briefly, MDA-468 cells were treated with 1% formaldehyde prior to lysis in RIPA Buffer and sonication to yield 500 bp fragments. Protein A/G Sepharose beads were conjugated to anti-p53 antibodies (1801/D0-1) which were subsequently used to immunoprecipitate p53 from 1 mg whole cell lysate. Quantitative ChIP was carried out on an ABI StepOne Plus using SYBR green dye. Genomic Locations of SRE-1 sites within the promoters of sterol biosynthesis genes were located using a literature search: HMGCS 1 (Inoue et al., 1998), HMGCR (Boone et al., 2009), MVK (Bishop et al., 1998), FDPS (Ishimoto et al., 2010), FDFT1 (Inoue et al., 1998), SQLE (Nagai et al., 2002) and CYP51A1 (Halder et al., 2002), respectively. ChIP primer sequences are provided in Table 2 of PCT/US 11/55488 and are incorporated by reference.
MDA-468.shp53 cells were treated with Fatostatin (20 μM) and subjected to ChIP analysis. FIG. 1. Cells in 3D culture were treated on Day 1 or Day 4 of the 3D protocol and refed every 4 days with fresh drug. Data are presented as mean+−SD of six independent experiments. **p<0.01.

[3] = system: MDA-231 cells; assay: Three-dimensional culture of MDA-231.shp53 cells; assay type: cell-based; conditions: 3D culture 8 days, fatostatin 2 or 20 μM added day 1
Protocol: FIG. 2. MDA-231.shp53 cells were grown in 3D cultures for 8 days and treated with (A) DMSO, (B) Fatostatin 2 μM or (C) Fatostatin 20 μM. Drugs were added on day 1. Representative DIC images are shown. Scale bar, 200 μm.
(§1) Three-dimensional culture was carried out as described in Debnath et al., 2003. Briefly, 8-well chamber slides were lined with 50 μl growth factor reduced Matrigel (BD Biosciences). Cells were then seeded at a density of 5,000 cells/well in Assay Medium (DMEM/F12+2% Horse Serum+10 μg/ml Insulin+0.5 μg/ml Hydrocortisone) containing 2% Matrigel. Cells were refed with Assay Medium containing 2% Matrigel every 4 days. For RNA/protein analysis from 3D cultures, 35 mm plates were lined with 500 μl Matrigel and cells were seeded at a density of 225,000 cells/plate in Assay Medium+2% Matrigel. Cells were harvested using Cell Recovery Solution (BD Biosciences) according to the manufacturer's instructions.
MDA-231.shp53 cells were grown in 3D cultures for 8 days and treated with DMSO and fatostatin (2 or 20 μM). Drugs were added on day 1. Representative DIC images are shown. FIG. 2. Scale bar, […].

[4] = system: SKBR3 cells; assay: Three-dimensional culture of SKBR3 cells; assay type: cell-based; conditions: 3D culture 8 days, fatostatin 2 or 20 μM added Day 1
Protocol: (§2) FIG. 3. Fatostatin inhibits SKBR3 cell growth in 3D Culture. SKBR3 cells were grown in 3D cultures for 8 days treated with (A) DMSO, (B) Fatostatin 2 μM or (C) Fatostatin 20 μM. Drugs were added on Day 1. Representative Differential Interference Contrast (DIC) images are shown. Scale bar, 200 μm.
as §1
SKBR3 cells were grown in 3D cultures for 8 days treated with DMSO, Fatostatin (2 μM) or (20 μM). Drugs were added on Day 1.

[5] = system: MDA-468 cells; assay: Three-dimensional culture of MDA-468.shp53 cells; assay type: cell-based; conditions: 3D culture 10 days, fatostatin 2 or 20 μM added Day 1
Protocol: as §2, with “FIG. 4.” for “FIG. 3.”, “inhibits MDA-468” for “inhibits SKBR3”, “Culture. MDA-468.shp53” for “Culture. SKBR3”, “for 10” for “for 8”
as §1
MDA-468.shp53 cells were grown in 3D cultures for 10 days treated with DMSO, Fatostatin (2 μM) or (20 μM). Drugs were added on Day 1.

Row | SMILES | oral availability [1] | level of mutant p53 binding to the HMG-CoA reductase gene promoter [2] | cell growth in 3D culture [3] | normalizing the abnormal 3D morphology [3] | cell growth in 3D culture [4] | normalizing the abnormal 3D morphology [4] | cell growth in 3D culture [5] | normalizing the abnormal 3D morphology [5]
1 | CCCc1cc(-c2nc(-c3ccc(NS(C)(=O)=O)cc3)cs2)ccn1 [N-(4-(2-(2-Propylpyridin-4-yl)thiazol-4-yl)phenyl)methanesulfonamide] | demonstrated | – | – | – | – | – | – | –
2 | CCCc1cc(-c2nc(-c3ccc(C)cc3)cs2)ccn1 [fatostatin, 2-Propyl-4-(4-(p-tolyl)thiazol-2-yl) pyridine] | – | significantly reduced | inhibited | dramatic effect on normalizing the abnormal 3D morphology | inhibited | dramatic effect on normalizing the abnormal 3D morphology | inhibited | dramatic effect on normalizing the abnormal 3D morphology
